These results are taken from publication PMC11053168, “Agonist-selective activation of individual G-proteins by muscarinic receptors” (Scientific Reports, 2024).

Broadly, the Ki is a measure of affinity in units of concentration, obtained from inhibition or displacement.

Read-outs that look alike come from different tables or passages of the source.

One test addresses T1, M1 muscarinic receptor (Homo sapiens, UniProt P11229).
T1 construct: membranes
T1 sequence (P11229 1-460): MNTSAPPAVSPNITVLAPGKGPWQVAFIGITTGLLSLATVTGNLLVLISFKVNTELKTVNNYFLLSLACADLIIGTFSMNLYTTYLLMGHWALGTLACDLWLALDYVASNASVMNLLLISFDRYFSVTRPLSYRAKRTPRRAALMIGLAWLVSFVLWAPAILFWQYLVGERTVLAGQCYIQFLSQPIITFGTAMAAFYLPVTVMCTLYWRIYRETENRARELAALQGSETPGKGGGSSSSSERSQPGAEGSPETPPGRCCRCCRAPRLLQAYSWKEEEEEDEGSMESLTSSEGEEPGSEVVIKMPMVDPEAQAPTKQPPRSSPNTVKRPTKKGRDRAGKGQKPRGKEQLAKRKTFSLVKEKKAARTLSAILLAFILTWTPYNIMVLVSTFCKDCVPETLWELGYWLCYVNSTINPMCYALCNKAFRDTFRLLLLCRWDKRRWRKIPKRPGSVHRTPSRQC
The test can be described thus: [3H]NMS competition binding, membranes from CHO cells expressing M1. The settings on record: competition with [3H]NMS, mean ± SD, three experiments, read-out: Binding affinity, negative logarithm of Ki (converted). The protocol: (§1) Cells were cultured as described previously by Randakova et al.[33]. […] The medium was supplemented with 5 mM butyrate for the last 24 h of culture to increase receptor expression. Cells were washed with (phosphate-buffered saline (PBS), mechanically harvested by scraper and centrifugated 1000 × g for 5 min. Cell pellets were kept at − 80 °C.
(§2) Membranes were prepared as described previously by Randakova et al.[33]. Cells harvested from twenty 100 mm petri dishes (CHO) or 30 ml of cell suspension (Sf9) were suspended in 20 ml of ice-cold incubation medium (100 mM NaCl, 20 mM Na-HEPES, 10 mM MgCl2, pH 7.4) supplemented with 10 mM EDTA and homogenized on ice by two 30‐s strokes using a Polytron homogenizer (Ultra-Turrax; Janke & Kunkel GmbH & Co. KG, IKA-Labortechnik, Staufen, Germany) with a 30 s pause between strokes. Cell homogenates were centrifuged for 5 min at 1000×g to remove whole cells and cell nuclei. The resulting supernatants were centrifuged for 30 min at 30,000×g. Pellets were suspended in a fresh incubation medium, incubated on ice for 30 min, and centrifuged again. The resulting membrane pellets were kept at − 80 °C until assayed within 10 weeks.
(§3) Non-specific binding was determined in the presence of 10 μM unlabelled atropine. Incubations were terminated by filtration through filtration plates multiscreen 96 well Harvest (Merck Millipore) using a Brandel cell harvester (Brandel, Gaithersburg, MD, USA). Filtration plates were dried in a microwave oven, and then 40 μl of liquid scintillator Rotiscint eco plus (Roth) was added. The filtration plates were counted in the Microbeta scintillation counter (PerkinElmer). […] The inhibition constant KI was calculated according to Eq. (2).
(§4) Inhibition constants KI were calculated according to Eq. (2).2 KI=IC50/1+D/KD where IC50 is calculated according to Eq.

In a further test the target is T2, M2 muscarinic receptor (Homo sapiens, UniProt P08172).
T2 construct: membranes
T2 sequence (P08172 1-466): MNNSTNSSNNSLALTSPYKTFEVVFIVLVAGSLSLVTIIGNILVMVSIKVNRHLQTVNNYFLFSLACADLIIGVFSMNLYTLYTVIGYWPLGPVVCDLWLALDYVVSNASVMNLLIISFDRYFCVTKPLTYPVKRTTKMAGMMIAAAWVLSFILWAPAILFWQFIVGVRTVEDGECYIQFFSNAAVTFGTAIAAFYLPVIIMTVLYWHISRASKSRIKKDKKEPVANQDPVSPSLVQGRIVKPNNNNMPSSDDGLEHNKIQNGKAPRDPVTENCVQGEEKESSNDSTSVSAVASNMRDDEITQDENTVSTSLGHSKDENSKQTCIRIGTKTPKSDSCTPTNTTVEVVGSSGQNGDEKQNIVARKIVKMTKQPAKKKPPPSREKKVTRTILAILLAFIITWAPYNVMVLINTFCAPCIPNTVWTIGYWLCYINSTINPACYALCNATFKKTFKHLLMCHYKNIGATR
The test can be described thus: [3H]NMS competition binding, membranes from CHO cells expressing M2. The protocol: as §1, §2, §3, §4

The next test addresses T3, M3 muscarinic receptor (Homo sapiens, UniProt P20309).
T3 construct: membranes
Kind of test: [3H]NMS competition binding, membranes from CHO cells expressing M3. The settings on record: competition with [3H]NMS, mean ± SD, three experiments, read-out: Binding affinity, negative logarithm of Ki (converted). The protocol: as §1, §2, §3, §4

A further test addresses T4, M4 muscarinic receptor (Homo sapiens, UniProt P08173).
T4 construct: membranes
T4 sequence (P08173 1-479): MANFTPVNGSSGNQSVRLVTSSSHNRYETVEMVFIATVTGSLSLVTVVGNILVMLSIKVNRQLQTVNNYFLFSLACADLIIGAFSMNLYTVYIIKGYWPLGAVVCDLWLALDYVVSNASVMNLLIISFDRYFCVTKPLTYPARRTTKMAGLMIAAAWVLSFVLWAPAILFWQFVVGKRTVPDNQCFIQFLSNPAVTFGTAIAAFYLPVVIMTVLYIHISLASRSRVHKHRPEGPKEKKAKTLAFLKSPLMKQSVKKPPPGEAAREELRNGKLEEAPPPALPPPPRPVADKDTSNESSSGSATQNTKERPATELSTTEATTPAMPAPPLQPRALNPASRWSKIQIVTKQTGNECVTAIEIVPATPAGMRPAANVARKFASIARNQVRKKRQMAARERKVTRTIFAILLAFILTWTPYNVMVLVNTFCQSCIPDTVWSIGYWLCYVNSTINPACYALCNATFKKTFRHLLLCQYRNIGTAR
The test can be described thus: [3H]NMS competition binding, membranes from CHO cells expressing M4. The method, then: as §1, §2, §3, §4

A further test addresses T5, M5 muscarinic receptor (Homo sapiens, UniProt P08912).
T5 construct: membranes
T5 sequence (P08912 1-532): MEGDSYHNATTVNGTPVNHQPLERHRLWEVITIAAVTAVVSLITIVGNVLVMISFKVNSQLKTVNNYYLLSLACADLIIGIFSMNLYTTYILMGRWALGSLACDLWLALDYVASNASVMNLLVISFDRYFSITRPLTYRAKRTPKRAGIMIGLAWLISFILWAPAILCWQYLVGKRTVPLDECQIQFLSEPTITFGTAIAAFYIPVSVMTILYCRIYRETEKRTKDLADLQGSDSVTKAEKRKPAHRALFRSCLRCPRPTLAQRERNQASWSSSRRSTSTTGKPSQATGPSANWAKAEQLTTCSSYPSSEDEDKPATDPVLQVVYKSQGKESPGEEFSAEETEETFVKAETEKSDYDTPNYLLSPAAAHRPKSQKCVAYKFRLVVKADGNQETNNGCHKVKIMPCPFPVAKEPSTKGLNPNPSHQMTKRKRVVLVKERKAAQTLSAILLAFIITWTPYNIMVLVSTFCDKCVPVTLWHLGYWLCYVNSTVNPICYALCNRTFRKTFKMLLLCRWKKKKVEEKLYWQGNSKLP
Kind of test: [3H]NMS competition binding, membranes from CHO cells expressing M5. The method, then: as §1, §2, §3, §4

A further test has as its target T6, M2 receptor (Homo sapiens, UniProt P08172).
T6 sequence (P08172 1-466): T2 sequence (P08172 1-466)
Kind of test: Agonist-stimulated GTPγ[35S] binding to Sf9 membranes expressing M2 receptor and individual Gαi/o. The format is biochemical. The arrangement: host or cells: Sf9 insect cells, baculovirus (pFastBac1 / Bac-to-Bac); membranes. The settings on record: for Activation of individual Gi/o Gα types: M2 with GαoA, GαoB, Gαi1, Gαi2, Gαi3. The method, then:
Baculoviral stocks for expression of M2 receptor and individual Gα-subunits of Gi/o G-proteins (GαoA, GαoB, Gαi1, Gαi2, Gαi3) in SF9 cells were generated according to Bac-to-Bac® baculovirus expression system—user guide (https://assets.thermofisher.com/TFS-Assets/LSG/manuals/MAN0000414_BactoBacExpressionSystem_UG.pdf). […] After 96 h at 27 °C, baculoviral viral particles released into the medium were harvested. After centrifugation at 500×g for 10 min to remove detached cells and cell debris, baculoviral stock P0 was ready for amplification. Suspension of Sf9 cells at density 2 × 10^6 cells per ml was infected by baculoviral stock P0 in ratio 1:1000 and after 72 h of growth (in a shaking incubator at 135 rpm and 27 °C) the amplified baculoviral stock P1 was harvested. The cell suspension was centrifugated at 500×g for 10 min to remove cells and cell debris and the supernatant containing a high level of baculoviral particles P1 was collected. FBS to the concentration of 0.5% was added and the stock was stored at 4 °C, protected from light for up to 6 months. For the quantification of baculoviral particles, a plaque assay was used.
Cells were grown in suspension culture in 250 ml Erlenmeyer flasks in Sf-900™ III serum-free medium in an aerated shaking incubator at 27 °C and 135 rpm. Cells were maintained at the density of 1–4 × 10^6 cells per ml. Sf9 cells at the density 2 × 10^6 were co-infected with baculoviral stock for the M2 receptor and a particular Gi/o Gα in the ratio (1:10). […] Infected cells were harvested by centrifugation 1000×g for 10 min. Cell pellets were kept at − 80 °C.
as §2
Agonist stimulated GTPγ[^35S]binding to membranes from Sf9 cells expressing the M2 receptors in a combination with α-subunit of given Gi/o type (GαoA, GαoB, Gαi1, Gαi2, Gαi3) was measured in 96-well plates in a final volume of 200 µl of incubation medium described above containing 500 pM of GTPγ[^35S] […] Nonspecific binding was determined in the presence of 1 µM nonlabelled GTPγS. Incubations were terminated and processed as described above. Parameters of functional response were calculated according to Eq. (3) after subtraction of non-specific binding.
The basal value of GTPγ[^35S] binding was determined in the absence of the agonist. After subtraction of non-specific binding determined in the presence of 10 μM nonlabelled GTPγS, GTPγ[^35S]binding was divided by the basal value and expressed as folds over basal. […] Then Eq. (3) was fitted to the data using GraphPad. Obtained EMAX and EC50 values were used to calculate RAi values using Eq. (7). To determine τ and KA of the functional responses system EMAX was determined as described earlier. Basal values were subtracted and functional responses were expressed as fractions of system EMAX. […] Obtained τ and KA values were used to calculate the bias factor according to Eq. (8), see below, for each experiment.
Equation (4) was fitted to data by the two-step procedure described earlier[61]
(GTPγS resists hydrolysis and so accumulates on activated G proteins.)

T3 sequence (P20309 whole entry): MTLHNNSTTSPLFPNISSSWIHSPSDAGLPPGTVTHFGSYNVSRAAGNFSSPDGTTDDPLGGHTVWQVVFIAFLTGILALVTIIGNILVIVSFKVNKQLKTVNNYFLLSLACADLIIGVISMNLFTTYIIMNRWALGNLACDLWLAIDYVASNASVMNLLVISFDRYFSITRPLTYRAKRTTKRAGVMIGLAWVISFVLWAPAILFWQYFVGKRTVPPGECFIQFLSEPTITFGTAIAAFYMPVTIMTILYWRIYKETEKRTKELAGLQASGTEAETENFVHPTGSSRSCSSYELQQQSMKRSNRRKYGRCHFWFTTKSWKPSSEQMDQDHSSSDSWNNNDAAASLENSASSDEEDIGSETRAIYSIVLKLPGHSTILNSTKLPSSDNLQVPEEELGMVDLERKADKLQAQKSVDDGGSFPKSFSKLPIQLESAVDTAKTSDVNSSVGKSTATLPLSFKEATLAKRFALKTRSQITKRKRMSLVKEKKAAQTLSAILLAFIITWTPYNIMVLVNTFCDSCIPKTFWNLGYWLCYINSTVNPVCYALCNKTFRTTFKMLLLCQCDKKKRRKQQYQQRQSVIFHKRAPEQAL

`c1csc(CN2CCOCC2)c1` [JB-12-1]: the Ki at M1 muscarinic receptor was above 1000 µM; at M2 muscarinic receptor (M2, competition with [3H]NMS, mean ± SD, three experiments, read-out: Binding affinity, negative logarithm of Ki (converted)), 302 µM; at M3 muscarinic receptor, above 1000 µM; on M4 muscarinic receptor (M4, competition with [3H]NMS, mean ± SD, three experiments, read-out: Binding affinity, negative logarithm of Ki (converted)), above 1000 µM; at M5 muscarinic receptor (M5, competition with [3H]NMS, mean ± SD, three experiments, read-out: Binding affinity, negative logarithm of Ki (converted)) it was above 1000 µM.

Regarding `COC(=O)C1=CCC[N+](C)(Cc2cccs2)C1` (centres unmarked) [JB-13-2], the Ki was 42.7 µM at M1 muscarinic receptor; 9.55 µM on M2 muscarinic receptor; 126 µM at M3 muscarinic receptor; 22.9 µM on M4 muscarinic receptor; 97.7 µM at M5 muscarinic receptor.

As for `C[N+](C)(C)CC#CCOC(=O)Nc1cccc(Cl)c1.[Cl-]` [Mc-Neil A343, reference compound], the “Bias according to RAi, Gαi2 vs GαoB” value on M2 receptor (M2, relative to carbachol) is 2.3 ×. In addition, the “Activation of individual Gi/o Gα types” value on M2 receptor is listed as “activated all Gi/o Gα”.

As for `Clc1ccc2c(c1)N=C(N1CCNCC1)c1ccccc1N2` [NDMC, reference compound], the “Activation of individual Gi/o Gα types” value on M2 receptor is “activated all Gi/o Gα”.

Take `C[N+](C)(C)CC#CCOC1=NOCC1` [iperoxo, reference compound]: the “Bias according to RAi, Gαi3 vs GαoA” value on M2 receptor (M2, relative to carbachol) is listed as 2.5 times. The “Activation of individual Gi/o Gα types” value at M2 receptor is on record as “activated all Gi/o Gα”.

On to `O=C1CCCN1CC#CCN1CCCC1` [oxotremorine, reference compound], for which the “Bias according to RAi, Gαi2 vs Gαi3” value on M2 receptor (M2, relative to carbachol) was found to be 2 ×. Further, the “Activation of individual Gi/o Gα types” value on M2 receptor is on record as “activated all Gi/o Gα”.
